US7452887B2, “Quinoline- and isoquinoline-based compounds exhibiting ATP-utilizing enzyme inhibitory activity, and compositions, and uses thereof” (Amphora Discovery Corporation, priority 2004, dated 2008)

Assays:
Assay in all cases: HTS ATP-utilizing enzyme assay, off-chip mobility-shift (Caliper HTS 250)
Format in all cases: biochemical
Details in all cases: test compound 10 μM, kinase listed = active (greater than six-sigma from the mean activity of inactive compounds)
MAPKAPK2 = MAPKAPK2 (Homo sapiens, UniProt P49137)
MAPKAPK2, sequence (P49137 whole entry): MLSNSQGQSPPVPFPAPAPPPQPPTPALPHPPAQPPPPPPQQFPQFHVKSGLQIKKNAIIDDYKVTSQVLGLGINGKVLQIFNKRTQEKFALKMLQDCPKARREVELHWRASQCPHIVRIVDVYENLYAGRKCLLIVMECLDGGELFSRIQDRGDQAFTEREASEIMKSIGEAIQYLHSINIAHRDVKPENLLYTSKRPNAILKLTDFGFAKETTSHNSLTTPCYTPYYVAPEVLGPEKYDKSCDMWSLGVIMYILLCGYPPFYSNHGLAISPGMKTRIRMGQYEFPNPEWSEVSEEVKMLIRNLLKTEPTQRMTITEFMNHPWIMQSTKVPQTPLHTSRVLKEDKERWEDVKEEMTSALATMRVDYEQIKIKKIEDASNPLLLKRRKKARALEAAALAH
How it was run: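 Single-point screen of test compound at 10 μM against MAPKAPK2 with peptide substrate in HEPES pH 7.5 buffer (Triton X-100, BSA), 2.5 h at 20-22 °C. Substrate-to-phosphopeptide ratio was read by off-chip microfluidic mobility shift; EDTA and DMSO wells defined 100% and 0% controls, hits by six-sigma limits.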

AKT3 = AKT3 (Homo sapiens, UniProt Q9Y243)
AKT3, sequence (Q9Y243 whole entry): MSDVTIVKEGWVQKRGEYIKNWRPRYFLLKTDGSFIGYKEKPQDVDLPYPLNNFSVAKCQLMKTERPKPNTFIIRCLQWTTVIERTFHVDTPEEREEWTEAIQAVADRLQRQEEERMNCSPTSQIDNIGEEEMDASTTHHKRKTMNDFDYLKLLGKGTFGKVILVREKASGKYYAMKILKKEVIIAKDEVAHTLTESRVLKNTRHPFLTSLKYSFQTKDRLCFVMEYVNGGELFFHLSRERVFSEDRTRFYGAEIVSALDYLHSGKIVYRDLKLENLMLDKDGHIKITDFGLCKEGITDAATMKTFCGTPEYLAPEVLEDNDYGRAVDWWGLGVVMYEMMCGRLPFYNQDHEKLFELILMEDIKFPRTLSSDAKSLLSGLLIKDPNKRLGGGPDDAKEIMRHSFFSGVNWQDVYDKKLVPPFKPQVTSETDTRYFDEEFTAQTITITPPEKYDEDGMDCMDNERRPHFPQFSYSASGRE
How it was run: (§1)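 The ratio of peptide substrate to phosphorylated product, measured by microfluidic mobility shift, gave percent inhibition. Reactions contained enzyme, peptide substrate and compound at 10 μM in HEPES pH 7.5 buffer, ran 2.5 hrs at 20° C. to 22° C., and were quenched with EDTA.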

PRAK = biological target: T1, PRAK (Homo sapiens, UniProt Q8IW41)
T1 sequence (Q8IW41 1-473): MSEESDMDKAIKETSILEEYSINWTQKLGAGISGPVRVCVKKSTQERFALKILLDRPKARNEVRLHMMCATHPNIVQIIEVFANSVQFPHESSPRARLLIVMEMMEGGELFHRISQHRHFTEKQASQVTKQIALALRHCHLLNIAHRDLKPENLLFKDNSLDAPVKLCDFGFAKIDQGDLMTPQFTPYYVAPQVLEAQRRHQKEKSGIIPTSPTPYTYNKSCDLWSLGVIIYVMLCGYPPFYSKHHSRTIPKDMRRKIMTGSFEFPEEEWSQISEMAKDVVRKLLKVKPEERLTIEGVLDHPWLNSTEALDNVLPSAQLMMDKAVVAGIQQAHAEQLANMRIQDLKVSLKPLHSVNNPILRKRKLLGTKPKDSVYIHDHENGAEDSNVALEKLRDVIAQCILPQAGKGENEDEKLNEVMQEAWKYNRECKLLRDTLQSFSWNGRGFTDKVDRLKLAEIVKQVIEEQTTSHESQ
How it was run: as §1

NEK2 = biological target: T2, NEK2 (Homo sapiens, UniProt P51955)
T2 sequence (P51955 1-445): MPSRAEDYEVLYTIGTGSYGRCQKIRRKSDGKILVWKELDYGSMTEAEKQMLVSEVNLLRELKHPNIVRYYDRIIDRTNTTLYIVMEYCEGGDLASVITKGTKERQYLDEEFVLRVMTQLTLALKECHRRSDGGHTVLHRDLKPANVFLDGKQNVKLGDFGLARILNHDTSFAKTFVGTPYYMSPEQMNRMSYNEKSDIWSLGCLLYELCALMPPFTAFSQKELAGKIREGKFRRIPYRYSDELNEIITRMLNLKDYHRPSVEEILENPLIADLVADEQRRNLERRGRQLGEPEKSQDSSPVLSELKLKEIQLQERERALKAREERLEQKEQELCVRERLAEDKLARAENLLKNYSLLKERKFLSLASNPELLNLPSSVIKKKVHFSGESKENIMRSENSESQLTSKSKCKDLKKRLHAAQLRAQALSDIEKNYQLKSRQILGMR
How it was run: as §1

AKT1 = AKT1 (Homo sapiens, UniProt P31749)
AKT1, sequence (P31749 whole entry): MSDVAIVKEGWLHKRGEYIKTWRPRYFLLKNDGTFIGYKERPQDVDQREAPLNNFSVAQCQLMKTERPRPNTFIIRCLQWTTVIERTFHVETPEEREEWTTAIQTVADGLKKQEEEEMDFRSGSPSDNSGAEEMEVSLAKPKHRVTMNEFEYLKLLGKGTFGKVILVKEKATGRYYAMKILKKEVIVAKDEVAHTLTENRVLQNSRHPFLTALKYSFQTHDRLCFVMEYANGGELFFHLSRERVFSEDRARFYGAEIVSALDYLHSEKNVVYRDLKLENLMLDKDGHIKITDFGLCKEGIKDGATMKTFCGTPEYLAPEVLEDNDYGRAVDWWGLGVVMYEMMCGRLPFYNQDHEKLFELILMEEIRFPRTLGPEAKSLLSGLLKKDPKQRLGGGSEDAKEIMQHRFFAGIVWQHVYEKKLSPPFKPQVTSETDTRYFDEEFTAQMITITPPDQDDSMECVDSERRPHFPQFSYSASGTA
How it was run: as §1

CN1CCN(c2ccc(Nc3ccnc4ccc(-c5cccc(C#N)c5)cc34)cc2)CC1 [3-(4-(4-(4-methylpiperazin-1-yl)phenylamino)quinolin-6-yl)benzonitrile]
Activity (MAPKAPK2): MAPKAPK2 | Activity (AKT3): AKT3 | Activity (PRAK): PRAK | Activity (NEK2): NEK2 | Activity (AKT1): AKT1
